Patent US20130245026A1, “TREATMENT OF CANCER WITH TOR KINASE INHIBITORS” (SIGNAL PHARMACEUTICALS, LLC, priority 2012, published 2013)
Read-outs that look alike come from different tables or passages of the source.

Legend:
CAL-27 [1] = assay: Apoptosis assay for HN cancer cell lines (Caspase 3/7-Glo); format: cell-based; settings: 24 hours
Procedure: (§1) Apoptosis Assay for HN Cancer Cell Lines.
(§2) Prior to testing, cells were grown and expanded in culture flasks to provide sufficient amounts of starting material. Cells were then diluted to their desired densities and added directly to compound-spotted 384-well plates. Cells were allowed to grow for 24 hours in 5% CO2 at 37° C. The apoptotic response was assessed by quantifying the activities of caspase 3 and caspase 7 (Caspase 3/7-Glo) in treated cells and control cells at the 24-hour time point. All data was normalized and represented as a value relative to the DMSO-treated cells. Results were then expressed as CalX, which is the minimum compound concentration required to double the levels of caspase 3/7 relative to those of the DMSO-treated cells during their treatment period.

BHY [2] = assay: as above; format: cell-based; settings: 24 hours
Procedure: as §1, §2

FADU [3] = assay: as above; format: cell-based; settings: 24 hours
Procedure: as §1, §2

Detroit562 [4] = assay: as above; format: cell-based; settings: 24 hours
Procedure: as §1, §2

A253 [5] = assay: as above; format: cell-based; settings: 24 hours
Procedure: as §1, §2

SCC-15 [6] = assay: as above; format: cell-based; settings: 24 hours
Procedure: as §1, §2

SCC-9 [7] = assay: as above; format: cell-based; settings: 24 hours
Procedure: as §1, §2

SCC-25 [8] = assay: as above; format: cell-based; settings: 24 hours
Procedure: as §1, §2

HN [9] = assay: as above; format: cell-based; settings: minimum concentration to double caspase 3/7 vs DMSO, 24 hours
Procedure: as §1, §2

RPMI-2650 [10] = assay: as above; format: cell-based; settings: 24 hours
Procedure: as §1, §2

CAL-33 [11] = assay: as above; format: cell-based; settings: 24 hours
Procedure: as §1, §2

[12] = tested on: patient-derived tumor cells; assay: Apoptosis assay using patient tumor cells (CellEvent, caspase 3 and 7); format: cell-based, human; settings: concentration between 0.1-10 μM; 48 hours of treatment
Procedure: (§3) Proliferation and Apoptosis Assay Using Patient Tumor Cells.
(§4) Cryopreserved patient-derived tumor cells were resurrected from liquid nitrogen storage and conditioned on coated plates prior to drug treatment. […] The mitotic activity of the cells was assessed by measuring ethynyl […] (EdU) incorporation during S-phase. The untreated control wells received medium containing DMSO (vehicle used to dissolve each compound and EdU). […] The apoptotic activity of the cells was assessed by measuring CellEvent incorporation due to caspase 3 and 7 activation. The untreated control wells received medium containing DMSO (vehicle used to dissolve each compound and CellEvent). After conditioning, cell lines were plated on a 3D matrix in two 96-well plates. The cells were allowed to settle and form spheroid structures for 48 hours. Then, 48 hours after plating, the cells were treated with compound.
The cells were treated only on Day 1. After 48 hours of compound treatment, CellEvent was added to measure the apoptotic activity in cells. […] For the Apoptosis assay, images were analyzed using a Multi Wavelength Scoring Algorithm (Molecular Devices, Sunnyvale, Calif.) to quantify mean fluorescent intensities (MFI) of each well for activated caspase 3 and 7 using CellEvent. The CellEvent mean fluorescence intensities (MFI) of treated wells and untreated controls were averaged and plotted.

CAL-27 [13] = assay: Growth inhibition assay for head and neck (HN) cancer cell lines; format: cell-based; settings: Homo sapiens, 72 hours, Cell Titer-Glo
Procedure: (§5) Growth Inhibition Assay for Head and Neck (HN) Cancer Cell Lines.
(§6) A serial titration was performed to produce a working concentration range of 1.5 μM to 10 mM. Aliquots to produce final concentrations of 1.5 nM to 10 μM were spotted via an acoustic dispenser (EDC ATS-100) into an empty 384-well plate. […] The DMSO concentration was kept constant for a final assay concentration of 0.1% DMSO. Plates were replicated for use with different cell lines and testing periods. After compound plate replication, all plates were sealed (Agilent ThermoLoc) and stored at −20° C. for up to 1 month. […] When ready for testing, plates were removed from the freezer, thawed, and unsealed just prior to the addition of the test cells. Prior to testing, cells were grown and expanded in culture flasks to provide sufficient amounts of starting material. Cells were then diluted to the appropriate densities and added directly to the compound-spotted 384-well plates. Cells were allowed to grow for 72 hours at 37° C./5% CO2. At the time when compound was added (t0), initial cell number was assessed via a viability assay (Cell Titer-Glo) by quantifying the level of luminescence generated by ATP present in viable cells. After 72 hours, cell viability of compound-treated cells was assessed via Cell Titer-Glo and luminescence measurement. […] A control cell line (the lung tumor cell line, A549) was included in each of the assays. The compound response against this control cell line was monitored closely to enable comparison of the data generated through the assay period. All data were normalized and presented as a percentage of the DMSO-treated cells. Results were then expressed as a GI50 value. The GI50 value corrects for the cell count at time zero.

BHY [14] = assay: as above; format: cell-based; settings: 72 hours, Cell Titer-Glo
Procedure: as §5, §6

FADU [15] = assay: as above; format: cell-based; settings: Homo sapiens, 72 hours, Cell Titer-Glo
Procedure: as §5, §6

Detroit562 [16] = assay: as above; format: cell-based; settings: Homo sapiens, Detroit 562, 72 hours, Cell Titer-Glo
Procedure: as §5, §6

A253 [17] = assay: as above; format: cell-based; settings: Homo sapiens, 72 hours, Cell Titer-Glo
Procedure: as §5, §6

SCC-15 [18] = assay: as above; format: cell-based; settings: Homo sapiens, 72 hours, Cell Titer-Glo
Procedure: as §5, §6

SCC-9 [19] = assay: as above; format: cell-based; settings: Homo sapiens, 72 hours, Cell Titer-Glo
Procedure: as §5, §6

SCC-25 [20] = assay: as above; format: cell-based; settings: Homo sapiens, 72 hours, Cell Titer-Glo
Procedure: as §5, §6

HN [21] = assay: as above; format: cell-based; settings: 72 h
Procedure: as §5, §6

RPMI-2650 [22] = assay: as above; format: cell-based; settings: Homo sapiens, 72 hours, Cell Titer-Glo
Procedure: as §5, §6

CAL-33 [23] = assay: as above; format: cell-based; settings: Homo sapiens, 72 hours, Cell Titer-Glo
Procedure: as §5, §6

[24] = tested on: patient-derived tumor cells; assay: Proliferation assay using patient tumor cells (EdU incorporation, 3D matrix); format: cell-based; settings: Homo sapiens
Procedure: as §3, §4
The cells were treated only on Day 1. For the last 48 hours of the treatment, EdU was added to measure the cell proliferation. At the end of the treatment, plates were fixed, permeabilized and stained for EdU uptake (proliferation marker) and DAPI (nuclear marker). Plates were imaged at 4× magnification using ImageXpress Micro (Molecular Devices, Sunnyvale, Calif.). Seven z-stacks at 5 sites per well were captured and deconvoluted to create the images for analysis. For the proliferation assay, images were analyzed using a Multi Wave Scoring Algorithm (Molecular Devices, Sunnyvale, Calif.) to quantify mean fluorescent intensities (MFI) of each well for EdU. The EdU MFI's for the treated wells were normalized to those of the untreated wells to generate the compound response curves.

[25] = Table 1, minimum concentration to double caspase 3/7 vs DMSO
[26] = minimum concentration to double caspase 3/7 vs DMSO
[27] = corrected for cell count at time zero

`CCN1C(=O)CNc2ncc(-c3ccc(-c4nc[nH]n4)nc3C)nc21` [Compound 1, 1-ethyl-7-(2-methyl-6-(1H-1,2,4-triazol-3-yl)pyridin-3-yl)-3,4-dihydropyrazino[2,3-b]pyrazin-2(1H)-one] gave a Cal X (CAL-27 [1]; [25]) greater than 10 µM, a CalX (CAL-27 [1]; [26]) greater than 10 µM and a Cal X (BHY [2]; [25]) greater than 10 µM. It also gave a CalX (BHY [2]; [26]) greater than 10 µM, a Cal X (FADU [3]; [25]) greater than 10 µM and a CalX (FADU [3]; [26]) greater than 10 µM. It also gave a Cal X (Detroit562 [4]; [25]) greater than 10 µM, a CalX (Detroit562 [4]; [26]) greater than 10 µM and a Cal X (A253 [5]; [25]) greater than 10 µM. It also gave a CalX (A253 [5]; [26]) greater than 10 µM, a Cal X (SCC-15 [6]; [25]) greater than 10 µM and a CalX (SCC-15 [6]; [26]) greater than 10 µM. It also gave a Cal X (SCC-9 [7]; [25]) greater than 10 µM, a CalX (SCC-9 [7]; [26]) greater than 10 µM and a Cal X (SCC-25 [8]; [25]) greater than 10 µM. It also gave a CalX (SCC-25 [8]; [26]) greater than 10 µM, a CalX (HN [9]) greater than 10 µM and a Cal X (RPMI-2650 [10]; [25]) greater than 10 µM. For the same molecule, the CalX (RPMI-2650 [10]; [26]) was greater than 10 µM, the Cal_X (CAL-33 [11]; Table 1, minimum concentration to double caspase 3/7 vs DMSO, in µM) was 0.8764 and the CalX (CAL-33 [11]; [26]) was 0.8764 µM. For the same molecule, the “apoptosis (activated caspase 3 and 7, CellEvent MFI)” value [12] was “Apoptosis was observed in some patient-derived samples”, the IC50 (CAL-27 [13]) was 177 nM and the GI50 (CAL-27 [13]; [27]) was 144 nM. For the same molecule, the IC50 (BHY [14]) was 210 nM, the GI50 (BHY [14]; [27]) was 39.5 nM and the IC50 (FADU [15]) was 1160 nM. It also gave a GI50 (FADU [15]; [27]) of 792 nM, an IC50 (Detroit562 [16]) of 254 nM and a GI50 (Detroit562 [16]; [27]) of 169 nM. It also gave an IC50 (A253 [17]) of 378 nM, a GI50 (A253 [17]; [27]) of 303 nM and an IC50 (SCC-15 [18]) of 679 nM. For the same molecule, the GI50 (SCC-15 [18]; [27]) was 56.8 nM, the IC50 (SCC-9 [19]) was 362 nM and the GI50 (SCC-9 [19]; [27]) was 129 nM. The IC50 (SCC-25 [20]) was 179 nM, the GI50 (SCC-25 [20]; [27]) was 127 nM and the GI50 (HN [21]) was 117 nM. For the same molecule, the IC50 (HN [21]) was 178 nM, the IC50 (RPMI-2650 [22]) was 389 nM and the GI50 (RPMI-2650 [22]; [27]) was 219 nM. The IC50 (CAL-33 [23]) was 69.8 nM, the GI50 (CAL-33 [23]; [27]) was 42.7 nM and the IC50 ([24]; Unknown, Left palate, read-out: Prolif IC50) was 547 nM. It also gave an IC50 ([24]; person, H&N carcinoma, Left superior segment, read-out: Prolif IC50) of 260 nM, an IC50 ([24]; person, H&N carcinoma, Lung, read-out: Prolif IC50) of 342 nM and an IC50 ([24]; person, Larynx carcinoma, Left side neck, read-out: Prolif IC50) of 103 nM. For the same molecule, the IC50 ([24]; person, Squamous carcinoma H&N, Neck, read-out: Prolif IC50) was 1720 nM, the IC50 ([24]; person, Squamous carcinoma H&N, Right lower lobe lung, read-out: Prolif IC50) was 139 nM and the IC50 ([24]; person, Squamous carcinoma H&N, Right nasal, read-out: Prolif IC50) was 240 nM. It also gave an IC50 ([24]; person, Squamous cell H&N, Cervical lymph node, read-out: Prolif IC50) of 146 nM, an IC50 ([24]; person, Squamous cell H&N, Left chest wall, read-out: Prolif IC50) of 157 nM and an IC50 ([24]; person, Squamous cell H&N, Left neck lymph node, read-out: Prolif IC50) of 499 nM. It also gave an IC50 ([24]; person, Squamous cell H&N, Left neck, cervical, read-out: Prolif IC50) of 429 nM, an IC50 ([24]; person, Squamous cell H&N, Left tonsil, read-out: Prolif IC50) of 162 nM and an IC50 ([24]; person, Squamous cell H&N, Mass, left latisimal muscle, read-out: Prolif IC50) of 115 nM. The IC50 ([24]; person, Squamous cell H&N, Mass, skull base excision, read-out: Prolif IC50) was 157 nM, the IC50 ([24]; person, Squamous cell H&N, Pleural fluid, read-out: Prolif IC50) was 536 nM and the IC50 ([24]; person, Squamous cell H&N, Right lower lobe lung, read-out: Prolif IC50) was 322 nM. It also gave an IC50 ([24]; person, Squamous cell H&N, Right pleural biopsy, read-out: Prolif IC50) of 441 nM, an IC50 ([24]; person, Squamous cell tongue, Right axilliary node, read-out: Prolif IC50) of 318 nM and an IC50 ([24]; person, Tongue, Left neck mass, read-out: Prolif IC50) of 377 nM. It also gave an IC50 ([24]; span over all patient tumor cell samples of Table 3, read-out: inhibition of proliferation of patient tumor cells, IC50) of 100 to 1800 nM.
